From patent US9550739B2, “Molecules having certain pesticidal utilities, and intermediates, compositions, and processes related thereto” (priority 2014, dated 2017)

Tests used:
Assay type in all cases: in vivo
[1] = system: Green Peach Aphid (Myzus persicae, MYZUPE) ("GPA"); test: Bioassays on Green Peach Aphid (GPA), cabbage seedling foliar spray; details: 72 h, 200 ppm foliar spray on cabbage seedlings, three days, Abbott corrected % control, read-out: GPA % Control (or Mortality) rating
Procedure: Certain molecules disclosed in this document were tested against GPA using procedures described in the following example. In the reporting of the results, the “GPA Rating Table” was used (See Table Section).
Cabbage seedlings grown in 3-inch pots, with 2-3 small (3-5 cm) true leaves, were used as test substrate. The seedlings were infested with 20-50 GPA (wingless adult and nymph stages) one day prior to chemical application. Four pots with individual seedlings were used for each treatment. Test compounds (2 mg) were dissolved in 2 mL of acetone/methanol (1:1) solvent, forming stock solutions of 1000 ppm test compound. The stock solutions were diluted 5× with 0.025% Tween 20 in water to obtain the solution at 200 ppm test compound. A hand-held aspirator-type sprayer was used for spraying a solution to both sides of […] leaves until runoff. Reference plants (solvent check) were sprayed with the diluent only containing 20% by volume of acetone/methanol (1:1) solvent. Treated plants were held in a holding room for three days at approximately 25° C. and ambient relative humidity (RH) prior to grading. Evaluation was conducted by counting the number of live aphids per plant under a microscope. Percent Control was measured by using Abbott's correction formula (W. S. Abbott, “A Method of Computing the Effectiveness of an Insecticide” J. Econ. Entomol. 18 (1925), pp. 265-267) as follows. Corrected % Control=100*(X−Y)/X • where • X=No. of live aphids on solvent check plants and • Y=No. of live aphids on treated plants

[2] = system: Yellow Fever Mosquito (Aedes aegypti, AEDSAE) ("YFM"); details: about 1 day-old larvae, 4000 ppm master solution diluted, 3 days, room temperature
Method in brief: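 Compounds from 4000 ppm DMSO master plates, diluted in 90:10 water:acetone, dispensed into 96-well plates, six replicates. About 1-day-old larvae added in liver-powder water. Wells covered, held 3 days at room temperature, then scored for mortality.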

[3] = system: Beet Armyworm (Spodoptera exigua, LAPHEG) ("BAW"); test: Bioassays on Beet Armyworm (BAW), 128-well diet tray assay; details: Spodoptera exigua, 168 h; second instar BAW larvae, 50 μg/cm^2 on artificial diet, five to seven days, 25° C.; read-out: BAW % Control (or Mortality) rating
Method in brief: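 Second-instar larvae, one to five per well, were placed on artificial diet surface-treated with 50 μg/cm^2 compound in 90:10 acetone-water and dried, eight wells per compound. Trays were held at 25° C, 14:10 light-dark, for five to seven days. Percent mortality per well was averaged over the eight wells.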

[4] = system: Cabbage Looper (Trichoplusia ni, TRIPNI) ("CL"); test: Bioassays on Cabbage Looper (CL), 128-well diet tray assay; details: Trichoplusia ni, 168 h, read-out: CL % Control (or Mortality) rating
Method in brief: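 Second instar larvae (one to five per well) placed on artificial diet treated with 50 μg/cm^2 compound in acetone-water, eight wells per compound. Held at 25° C, 14:10 light-dark for five to seven days; percent mortality averaged across wells.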

Row | Structure (SMILES) | mortality at 200 ppm [1] | YFM % Control (or Mortality) rating [2] | mortality at 50 µg/cm2 [3] | mortality at 50 µg/cm2 [4]
1 | CCOc1ccccc1-c1cccc(C(=O)Nc2ccc(-c3ncn(-c4ccc(OC(F)(F)F)cc4)n3)cc2)c1 [F38, 2′-Ethoxy-N-(4-(1-(4-(trifluoromethoxy)phenyl)-1H-1,2,4-triazol-3-yl)phenyl)-[1,1′-biphenyl]-3-carboxamide] | 0 to 80% | A (80-100) | 50 to 100% | 50 to 100%
2 | O=C(Nc1ccc(-c2ncn(-c3ccc(C(F)(F)F)cc3)n2)cc1)c1ccc(F)c(-c2ccccc2F)c1 [F59, 2′,6-Difluoro-N-(4-(1-(4-(trifluoromethyl)phenyl)-1H-1,2,4-triazol-3-yl)phenyl)-[1,1′-biphenyl]-3-carboxamide] | 0% | A (80-100) | 50 to 100% | 50 to 100%
3 | COc1ccccc1-c1cccc(C(=O)Nc2ccc(-c3ncn(-c4ccc(C(F)(F)F)cc4)n3)cc2)c1 [F60, 2′-Methoxy-N-(4-(1-(4-(trifluoromethyl)phenyl)-1H-1,2,4-triazol-3-yl)phenyl)-[1,1′-biphenyl]-3-carboxamide] | 0 to 80% | A (80-100) | 50 to 100% | 50 to 100%
4 | Cc1c(C(=O)Nc2ccc(-c3ncn(-c4ccc(OC(F)(F)F)cc4)n3)cc2)cccc1-c1ccccc1 [F14, 2-Methyl-N-(4-(1-(4-(trifluoromethoxy)phenyl)-1H-1,2,4-triazol-3-yl)phenyl)-[1,1′-biphenyl]-3-carboxamide] | 0 to 80% | D (No activity noticed in this bioassay) | 50 to 100% | 50 to 100%
5 | O=C(NCCc1ccc(-c2ncn(-c3ccc(OC(F)(F)F)cc3)n2)cc1)c1ccc(F)c(-c2ccccc2F)c1 [F55, 2′,6-Difluoro-N-(4-(1-(4-(trifluoromethoxy)phenyl)-1H-1,2,4-triazol-3-yl)phenethyl)-[1,1′-biphenyl]-3-carboxamide] | 0 to 80% | D (No activity noticed in this bioassay) | 50 to 100% | 50 to 100%
6 | CCc1ccccc1-c1cccc(C(=O)Nc2ccc(-c3ncn(-c4ccc(OC(F)(F)F)cc4)n3)cc2)c1 [F8, 2′-Ethyl-N-(4-(1-(4-(trifluoromethoxy)phenyl)-1H-1,2,4-triazol-3-yl)phenyl)-[1,1′-biphenyl]-3-carboxamide] | 0 to 80% | B (More than 0-Less than 80) | 50 to 100% | 50 to 100%
7 | Cc1cccc(C)c1-c1cccc(C(=O)Nc2ccc(-c3ncn(-c4ccc(OC(F)(F)F)cc4)n3)cc2)c1 [F12, 2′,6′-Dimethyl-N-(4-(1-(4-(trifluoromethoxy)phenyl)-1H-1,2,4-triazol-3-yl)phenyl)-[1,1′-biphenyl]-3-carboxamide] | 0 to 80% | A (80-100) | 50 to 100% | 50 to 100%
8 | O=C(Nc1ccc(-c2ncn(-c3ccc(OC(F)(F)C(F)(F)F)cc3)n2)cc1)c1cc(Cl)cc(-c2ccccc2)c1 [F6, 5-Chloro-N-(4-(1-(4-(perfluoroethoxy)phenyl)-1H-1,2,4-triazol-3-yl)phenyl)-[1,1′-biphenyl]-3-carboxamide] | – | D (No activity noticed in this bioassay) | 0% | 0%
9 | O=C(Nc1ccc(-c2ncn(-c3ccc(OC(F)(F)F)cc3)n2)cc1)c1cccc(-c2ccccc2)c1 [F24, N-(4-(1-(4-(trifluoromethoxy)phenyl)-1H-1,2,4-triazol-3-yl)phenyl)-[1,1′-biphenyl]-3-carboxamide] | 0 to 80% | D (No activity noticed in this bioassay) | 50 to 100% | 50 to 100%
